# Patent US8735414B2 (priority 2009, dated 2014)
# What was measured:
# [1] = test system: bicistronic HCV replicon (replicon RNA, GenBank Accession No. AJ242654); assay: HCV Replicon Assay; format: cell-based; conditions: Hepatitis C virus, 72 h, read-out: Replicon IC50
Compound,melting point,IC50 [1]
"C[C@H](NS(=O)(=O)c1ccc(-c2c(C#N)c3cc(F)ccc3n2C2C=CCCC2)nc1)C(F)(F)F (stereo partly drawn) [compound 413, 6-[3-cyano-1-(cyclohex-2-en-1-yl)-5-fluoro-1H-indol-2-yl]-N-[(2S)-1,1,1-trifluoropropan-2-yl]pyridine-3-sulfonamide]",186 to 187 °C,< 500 nM
"N#Cc1c(-c2ccc(S(=O)(=O)NC(CF)CF)cn2)n(-c2ccccc2)c2ccc(F)cc12 [compound 113, 6-(3-cyano-5-fluoro-1-phenyl-1H-indol-2-yl)-N-(1,3-difluoropropan-2-yl)pyridine-3-sulfonamide]",165 to 168 °C,< 500 nM
"CC(C)n1c(-c2ccc(S(=O)(=O)NC(CF)CF)cn2)c(C#N)c2cc(F)ccc21 [compound 60, 6-[3-cyano-5-fluoro-1-(propan-2-yl)-1H-indol-2-yl]-N-(1,3-difluoropropan-2-yl)pyridine-3-sulfonamide]",168 to 170 °C,< 500 nM
"C[C@@H](NS(=O)(=O)c1ccc(-c2c(C#N)c3cc(F)c(C4CC4)cc3n2C2CCC2)nc1)C(F)(F)F [compound 631, 6-(3-cyano-1-cyclobutyl-6-cyclopropyl-5-fluoro-1H-indol-2-yl)-N-[(2R)-1,1,1-trifluoropropan-2-yl]pyridine-3-sulfonamide]",190 to 194 °C,< 500 nM
"Cc1ccc2c(C#N)c(-c3ccc(S(=O)(=O)NC4(C(F)(F)F)CC4)cn3)n(C3CCC3)c2c1 [compound 256, 6-(3-cyano-1-cyclobutyl-6-methyl-1H-indol-2-yl)-N-[1-(trifluoromethyl)cyclopropyl]pyridine-3-sulfonamide]",189 to 194 °C,< 500 nM
"C[C@@H](NS(=O)(=O)c1ccc(-c2c(C#N)c3ccc(OC(F)F)cc3n2-c2ccccn2)nc1)C(F)(F)F [compound 534, 6-[3-cyano-6-(difluoromethoxy)-1-(pyridin-2-yl)-1H-indol-2-yl]-N-[(2R)-1,1,1-trifluoropropan-2-yl]pyridine-3-sulfonamide]",159 to 161 °C,< 500 nM
"C[C@H](NS(=O)(=O)c1ccc(-c2c(C#N)c3ccc(C4CCC4)cc3n2C2CCC2)nc1)C1CC1 [compound 263, 6-(3-cyano-1,6-dicyclobutyl-1H-indol-2-yl)-N-[(1S)-1-cyclopropylethyl]pyridine-3-sulfonamide]",124 to 126 °C,< 500 nM
"Cc1ccc2c(C#N)c(-c3ccc(S(=O)(=O)N[C@H](C)C(F)(F)F)cn3)n(-c3ncccn3)c2c1 [compound 688, 6-[3-cyano-6-methyl-1-(pyrimidin-2-yl)-1H-indol-2-yl]-N-[(2R)-1,1,1-trifluoropropan-2-yl]pyridine-3-sulfonamide]",196 to 198 °C,< 500 nM
"N#Cc1c(-c2ncc(S(=O)(=O)NC(CF)CF)cn2)n(C2CCC2)c2cc(N3CCOCC3)ccc12 [compound 321, 2-[3-cyano-1-cyclobutyl-6-(morpholin-4-yl)-1H-indol-2-yl]-N-(1,3-difluoropropan-2-yl)pyrimidine-5-sulfonamide]",223 to 225 °C,500 to 2000 nM
"C[C@H](NS(=O)(=O)c1cnc(-c2c(C#N)c3ccc(F)cc3n2C2CCCCC2)nc1)C(F)(F)F [compound 411, 2-(3-cyano-1-cyclohexyl-6-fluoro-1H-indol-2-yl)-N-[(2S)-1,1,1-trifluoropropan-2-yl]pyrimidine-5-sulfonamide]",224 to 226 °C,500 to 2000 nM
"Cc1cc2c(cc1O)c(C(N)=O)c(-c1ccc(S(=O)(=O)N[C@@H](C)C(F)(F)F)cn1)n2C1CCCC1 [compound 841, 1-cyclopentyl-5-hydroxy-6-methyl-2-(5-{[(2S)-1,1,1-trifluoropropan-2-yl]sulfamoyl}pyridin-2-yl)-1H-indole-3-carboxamide]",272 to 274 °C,< 500 nM
"Cc1ccc2c(c1)c(C#N)c(-c1ccc(S(=O)(=O)N[C@@H](C)C(F)(F)F)cn1)n2-c1ccc(F)cc1 [compound 920, 6-[3-cyano-1-(4-fluorophenyl)-5-methyl-1H-indol-2-yl]-N-[(2S)-1,1,1-trifluoropropan-2-yl]pyridine-3-sulfonamide]",195 to 200 °C,< 500 nM
"Cc1cc2c(cc1F)c(C#N)c(-c1ccc(S(=O)(=O)N[C@@H](C)C(F)(F)F)cn1)n2-c1ccnc(F)c1 [compound 1013, 6-[3-cyano-5-fluoro-1-(2-fluoropyridin-4-yl)-6-methyl-1H-indol-2-yl]-N-[(2S)-1,1,1-trifluoropropan-2-yl]pyridine-3-sulfonamide]",243.4 to 246.9 °C,< 500 nM
"CCc1cc2c(cc1F)c(C#N)c(-c1ccc(S(=O)(=O)N[C@@H](C)C(F)(F)F)cn1)n2C1CCCC1 [compound 633, 6-(3-cyano-1-cyclopentyl-6-ethyl-5-fluoro-1H-indol-2-yl)-N-[(2S)-1,1,1-trifluoropropan-2-yl]pyridine-3-sulfonamide]",201 to 202 °C,< 500 nM
"Cc1cc(F)c2c(C#N)c(-c3ccc(S(=O)(=O)N[C@@H](C)C(F)(F)F)cn3)n(C3CCC3)c2c1 [compound 627, 6-(3-cyano-1-cyclobutyl-4-fluoro-6-methyl-1H-indol-2-yl)-N-[(2S)-1,1,1-trifluoropropan-2-yl]pyridine-3-sulfonamide]",205 to 210 °C,< 500 nM
"C[C@H](NS(=O)(=O)c1ccc(-c2c(C#N)c3cc(OC(F)(F)F)ccc3n2-c2cnccn2)nc1)C(F)(F)F [compound 898, 6-[3-cyano-1-(pyrazin-2-yl)-5-(trifluoromethoxy)-1H-indol-2-yl]-N-[(2S)-1,1,1-trifluoropropan-2-yl]pyridine-3-sulfonamide]",191 to 195 °C,500 to 2000 nM
"CC(C)(C)S(=O)(=O)Nc1ccc(-c2c(C#N)c3ccc(OC(F)F)cc3n2CC2CC2)cn1 [compound 269, N-{5-[3-cyano-1-(cyclopropylmethyl)-6-(difluoromethoxy)-1H-indol-2-yl]pyridin-2-yl}-2-methylpropane-2-sulfonamide]",214 to 215 °C,500 to 2000 nM
"CC(C)NS(=O)(=O)c1cnc(-c2c(C(N)=O)c3ccc(OC(F)(F)F)cc3n2C2CCCC2)nc1 [compound 782, 1-cyclopentyl-2-[5-(propan-2-ylsulfamoyl)pyrimidin-2-yl]-6-(trifluoromethoxy)-1H-indole-3-carboxamide]",238 to 241 °C,< 500 nM
"Cc1ccc2c(c1)c(C#N)c(-c1ccc(S(=O)(=O)N[C@H](C)C(F)(F)F)cn1)n2C1CCCCC1 [compound 487, 6-(3-cyano-1-cyclohexyl-5-methyl-1H-indol-2-yl)-N-[(2R)-1,1,1-trifluoropropan-2-yl]pyridine-3-sulfonamide]",180 to 189 °C,< 500 nM
"C[C@H](NS(=O)(=O)c1ccc(-c2c(Cl)c3cc(F)c(C4CC4)cc3n2-c2ncccn2)nc1)C(F)(F)F [compound 947, 6-[3-chloro-6-cyclopropyl-5-fluoro-1-(pyrimidin-2-yl)-1H-indol-2-yl]-N-[(2S)-1,1,1-trifluoropropan-2-yl]pyridine-3-sulfonamide]",248 to 250 °C,< 500 nM
"CC(C)n1c(-c2ncc(S(=O)(=O)N[C@@H](C)C(F)(F)F)cn2)c(C#N)c2cc(F)ccc21 [compound 546, 2-[3-cyano-5-fluoro-1-(propan-2-yl)-1H-indol-2-yl]-N-[(2S)-1,1,1-trifluoropropan-2-yl]pyrimidine-5-sulfonamide]",172 to 176 °C,500 to 2000 nM
"C[C@H](NS(=O)(=O)c1ccc(-c2c(C(N)=O)c3cc(F)c(OC(F)F)cc3n2C2CCC2)nc1)C(F)(F)F [compound 703, 1-cyclobutyl-6-(difluoromethoxy)-5-fluoro-2-(5-{[(2S)-1,1,1-trifluoropropan-2-yl]sulfamoyl}pyridin-2-yl)-1H-indole-3-carboxamide]",184 to 186 °C,< 500 nM
"CCS(=O)(=O)Nc1ccc(-c2c(C#N)c3ccc(OCC(F)(F)F)cc3n2CC2CC2)nc1 [compound 284, N-{6-[3-cyano-1-(cyclopropylmethyl)-6-(2,2,2-trifluoroethoxy)-1H-indol-2-yl]pyridin-3-yl}ethanesulfonamide]",190 to 195 °C,500 to 2000 nM
"C[C@H](NS(=O)(=O)c1ccc(-c2c(C#N)c3cc(Cl)ccc3n2C2CCCC2)nc1)C(F)(F)F [compound 365, 6-(5-chloro-3-cyano-1-cyclopentyl-1H-indol-2-yl)-N-[(2S)-1,1,1-trifluoropropan-2-yl]pyridine-3-sulfonamide]",207 to 214 °C,< 500 nM
"CCc1cc2c(cc1F)c(C(N)=O)c(-c1ccc(S(=O)(=O)NC(C)(C)C(F)(F)F)cn1)n2-c1ncccn1 [compound 978, 6-ethyl-5-fluoro-1-(pyrimidin-2-yl)-2-{5-[(1,1,1-trifluoro-2-methylpropan-2-yl)sulfamoyl]pyridin-2-yl}-1H-indole-3-carboxamide]",261 to 269 °C,2000 to 5000 nM
"Cc1ccc2c(c1)c(C#N)c(-c1ncc(S(=O)(=O)NC(CF)CF)cn1)n2C1CCCC1 [compound 160, 2-(3-cyano-1-cyclopentyl-5-methyl-1H-indol-2-yl)-N-(1,3-difluoropropan-2-yl)pyrimidine-5-sulfonamide]",202 to 207 °C,< 500 nM
"Cc1cc2c(cc1F)c(C#N)c(-c1ccc(S(=O)(=O)N[C@@H](C)C(F)(F)F)cn1)n2-c1cncs1 [compound 973, 6-[3-cyano-5-fluoro-6-methyl-1-(1,3-thiazol-5-yl)-1H-indol-2-yl]-N-[(2S)-1,1,1-trifluoropropan-2-yl]pyridine-3-sulfonamide]",234 to 238 °C,< 500 nM
